Values joined by “and” are separate entries in the source; they are usually repeats but may differ in a detail not shown here. Equal values may be shown once. Inconclusive results and toxic doses are left out.
Tested on: CD2F1 mice, L1210 leukemia ip, survival T/C
Assay: NCI In Vivo Anticancer Drug Screen. Data for tumor model L1210 Leukemia (intraperitoneal) in CD2F1 (CDF1) mice
Details: higher = longer survival
Outline: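 Compound-dosed mice with transplantable tumor versus matched vehicle controls; endpoint ratio T/C reported.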

[1] = endpoint: mean survival time, dose: 100.0 mg/kg/injection, schedule: Q01DX009 (ip), vehicle: saline with Tween-80
[2] = endpoint: mean survival time, dose: 200.0 mg/kg/injection, schedule: Q01DX009 (ip), vehicle: saline with Tween-80
[3] = endpoint: mean survival time, dose: 400.0 mg/kg/injection, schedule: Q01DX009 (ip), vehicle: saline with Tween-80
[4] = endpoint: mean survival time, dose: 50.0 mg/kg/injection, schedule: Q01DX009 (ip), vehicle: saline with Tween-80

## NCCCNCCCCNC(=O)C(O)NC(=O)CCCCCCN=C(N)N (centres undefined)
endpoint: median survival time, dose: 0.19 mg/kg/injection, schedule: Q01DX005 (iv), vehicle: saline
  T/C: 123 % of control
endpoint: median survival time, dose: 0.39 mg/kg/injection, schedule: Q01DX009 (ip), vehicle: saline
  T/C: 185 % of control and 231 % of control
endpoint: median survival time, dose: 0.75 mg/kg/injection, schedule: Q01DX009 (ip), vehicle: saline
  T/C: 198 % of control
endpoint: median survival time, dose: 0.78 mg/kg/injection, schedule: Q01DX005 (iv), vehicle: other
  T/C: 153 % of control
endpoint: median survival time, dose: 0.78 mg/kg/injection, schedule: Q01DX005 (iv), vehicle: saline
  T/C: 156 % of control
endpoint: median survival time, dose: 0.78 mg/kg/injection, schedule: Q01DX009 (ip), vehicle: other
  T/C: 213 % of control
endpoint: median survival time, dose: 1.3 mg/kg/injection, schedule: Q01DX005 (iv), vehicle: other
  T/C: 153 % of control
endpoint: median survival time, dose: 1.3 mg/kg/injection, schedule: Q01DX005 (iv), vehicle: saline
  T/C: 161 % of control
endpoint: median survival time, dose: 1.5 mg/kg/injection, schedule: Q01DX009 (ip), vehicle: saline
  T/C: 220 % of control
endpoint: median survival time, dose: 1.56 mg/kg/injection, schedule: Q01DX005 (iv), vehicle: saline
  T/C: 160 % of control
endpoint: median survival time, dose: 1.56 mg/kg/injection, schedule: Q01DX009 (ip), vehicle: other
  T/C: 213 % of control
endpoint: median survival time, dose: 2.16 mg/kg/injection, schedule: Q01DX005 (iv), vehicle: other
  T/C: 171 % of control
endpoint: median survival time, dose: 2.16 mg/kg/injection, schedule: Q01DX005 (iv), vehicle: saline
  T/C: 165 % of control
endpoint: median survival time, dose: 3.0 mg/kg/injection, schedule: Q01DX009 (ip), vehicle: saline
  T/C: 220 % of control
endpoint: median survival time, dose: 3.12 mg/kg/injection, schedule: Q01DX005 (iv), vehicle: saline
  T/C: 172 % of control
endpoint: median survival time, dose: 3.12 mg/kg/injection, schedule: Q01DX009 (ip), vehicle: other
  T/C: 204 % of control
endpoint: median survival time, dose: 3.6 mg/kg/injection, schedule: Q01DX005 (iv), vehicle: other
  T/C: 176 % of control
endpoint: median survival time, dose: 3.6 mg/kg/injection, schedule: Q01DX005 (iv), vehicle: saline
  T/C: 164 % of control
endpoint: median survival time, dose: 4.4 mg/kg/injection, schedule: Q01DX009 (ip), vehicle: saline
  T/C: 221 % of control and 225 % of control and 230 % of control
endpoint: median survival time, dose: 4.5 mg/kg/injection, schedule: Q01DX009 (ip), vehicle: saline
  T/C: 219 % of control
endpoint: median survival time, dose: 6.0 mg/kg/injection, schedule: Q01DX005 (iv), vehicle: other
  T/C: 175 % of control
endpoint: median survival time, dose: 6.0 mg/kg/injection, schedule: Q01DX005 (iv), vehicle: saline
  T/C: 172 % of control
endpoint: median survival time, dose: 6.0 mg/kg/injection, schedule: Q01DX009 (ip), vehicle: saline
  T/C: 219 % of control
endpoint: median survival time, dose: 6.25 mg/kg/injection, schedule: Q01DX005 (iv), vehicle: saline
  T/C: 430 % of control
endpoint: median survival time, dose: 6.25 mg/kg/injection, schedule: Q01DX009 (ip), vehicle: other
  T/C: 225 % of control
endpoint: median survival time, dose: 7.88 mg/kg/injection, schedule: Q01DX005 (sc), vehicle: water
  T/C: 163 % of control
endpoint: median survival time, dose: 10.0 mg/kg/injection, schedule: Q01DX005 (iv), vehicle: saline
  T/C: 180 % of control
endpoint: median survival time, dose: 12.0 mg/kg/injection, schedule: Q01DX009 (ip), vehicle: saline
  T/C: 223 % of control
endpoint: median survival time, dose: 12.5 mg/kg/injection, schedule: Q01DX009 (ip), vehicle: other
  T/C: 242 % of control
endpoint: median survival time, dose: 15.75 mg/kg/injection, schedule: Q01DX005 (sc), vehicle: water
  T/C: 173 % of control and 179 % of control
endpoint: median survival time, dose: 25.0 mg/kg/injection, schedule: Q01DX009 (ip), vehicle: other
  T/C: 227 % of control
endpoint: median survival time, dose: 31.5 mg/kg/injection, schedule: Q01DX005 (sc), vehicle: water
  T/C: 178 % of control and 182 % of control
endpoint: median survival time, dose: 31.5 mg/kg/injection, schedule: Q03HX008 (sc), vehicle: water
  T/C: 164 % of control
endpoint: median survival time, dose: 37.0 mg/kg/injection, schedule: Q01DX005 (sc), vehicle: water
  T/C: 183 % of control
endpoint: median survival time, dose: 45.0 mg/kg/injection, schedule: Q01DX005 (sc), vehicle: water
  T/C: 176 % of control
endpoint: median survival time, dose: 150.0 micrograms per hour, schedule: Q#X X048 (sc), vehicle: water
  T/C: 182 % of control
endpoint: median survival time, dose: 150.0 micrograms per hour, schedule: Q#X X072 (sc), vehicle: water
  T/C: 182 % of control
endpoint: median survival time, dose: 150.0 micrograms per hour, schedule: Q#X X096 (sc), vehicle: water
  T/C: 205 % of control
endpoint: median survival time, dose: 170.0 micrograms per hour, schedule: Q#X X048 (sc), vehicle: water
  T/C: 178 % of control
endpoint: median survival time, dose: 170.0 micrograms per hour, schedule: Q#X X072 (sc), vehicle: water
  T/C: 200 % of control
endpoint: median survival time, dose: 200.0 micrograms per hour, schedule: Q#X X048 (sc), vehicle: water
  T/C: 110 % of control
endpoint: median survival time, dose: 200.0 micrograms per hour, schedule: Q#X X072 (sc), vehicle: water
  T/C: 101 % of control
endpoint: median survival time, dose: 200.0 micrograms per hour, schedule: Q#X X096 (sc), vehicle: water
  T/C: 114 % of control
endpoint: median survival time, dose: 207.0 micrograms per hour, schedule: Q#X X048 (sc), vehicle: water
  T/C: 168 % of control
endpoint: median survival time, dose: 207.0 micrograms per hour, schedule: Q#X X072 (sc), vehicle: water
  T/C: 120 % of control
endpoint: median survival time, dose: 207.0 micrograms per hour, schedule: Q#X X096 (sc), vehicle: water
  T/C: 109 % of control

## CCN1CC1 (tested in a mixture with another compound)
endpoint: mean survival time, dose: 1.17 mg/kg/injection, schedule: Q01DX009 (ip), vehicle: Klucel (hydroxypropylcellulose) (HPC)
  T/C: 93 % of control
endpoint: mean survival time, dose: 1.56 mg/kg/injection, schedule: Q04DX003 (ip), vehicle: other
  T/C: 92 % of control
endpoint: mean survival time, dose: 2.34 mg/kg/injection, schedule: Q01DX009 (ip), vehicle: Klucel (hydroxypropylcellulose) (HPC)
  T/C: 102 % of control
endpoint: mean survival time, dose: 3.12 mg/kg/injection, schedule: Q04DX003 (ip), vehicle: other
  T/C: 101 % of control
endpoint: mean survival time, dose: 4.68 mg/kg/injection, schedule: Q01DX009 (ip), vehicle: Klucel (hydroxypropylcellulose) (HPC)
  T/C: 86 % of control
endpoint: mean survival time, dose: 6.25 mg/kg/injection, schedule: Q04DX003 (ip), vehicle: other
  T/C: 91 % of control
endpoint: mean survival time, dose: 9.37 mg/kg/injection, schedule: Q04DX003 (ip), vehicle: Klucel (hydroxypropylcellulose) (HPC)
  T/C: 96 % of control and 98 % of control
endpoint: mean survival time, dose: 14.2 mg/kg/injection, schedule: Q04DX003 (ip), vehicle: Klucel (hydroxypropylcellulose) (HPC)
  T/C: 86 % of control and 94 % of control
endpoint: mean survival time, dose: 21.3 mg/kg/injection, schedule: Q04DX003 (ip), vehicle: Klucel (hydroxypropylcellulose) (HPC)
  T/C: 103 % of control

## CCCCOP(=O)(NCCOC)OCCCC
endpoint: mean survival time, dose: 100.0 mg/kg/injection, schedule: Q04DX003 (ip), vehicle: saline with Tween-80
  T/C: 101 % of control
endpoint: mean survival time, dose: 200.0 mg/kg/injection, schedule: Q04DX003 (ip), vehicle: saline with Tween-80
  T/C: 100 % of control
endpoint: mean survival time, dose: 400.0 mg/kg/injection, schedule: Q04DX003 (ip), vehicle: saline with Tween-80
  T/C: 103 % of control

## O=c1c2ccccc2sc2ccc3ccccc3c12
endpoint: mean survival time, dose: 100.0 mg/kg/injection, schedule: Q01DX001 (ip), vehicle: saline with Tween-80
  T/C: 106 % of control
endpoint: mean survival time, dose: 200.0 mg/kg/injection, schedule: Q01DX001 (ip), vehicle: saline with Tween-80
  T/C: 101 % of control
endpoint: mean survival time, dose: 400.0 mg/kg/injection, schedule: Q01DX001 (ip), vehicle: saline with Tween-80
  T/C: 101 % of control

## O=C1CSCc2c1ccc1ccccc21
[1]
  T/C: 98 % of control
[2]
  T/C: 95 % of control
[3]
  T/C: 96 % of control

## O=c1scc(-c2ccc(C(F)(F)F)cc2)s1
endpoint: mean survival time, dose: 12.5 mg/kg/injection, schedule: Q01DX009 (ip), vehicle: Klucel (hydroxypropylcellulose) (HPC)
  T/C: 100 % of control
endpoint: mean survival time, dose: 25.0 mg/kg/injection, schedule: Q01DX009 (ip), vehicle: Klucel (hydroxypropylcellulose) (HPC)
  T/C: 91 % of control

## Nc1ncnc2c1ccn2C1OC(CO)C2[O][Sn]([c]3ccccc3)([c]3ccccc3)[O]C21 (centres undefined)
endpoint: mean survival time, dose: 0.78 mg/kg/injection, schedule: Q01DX005 (ip), vehicle: other
  T/C: 110 % of control
endpoint: mean survival time, dose: 1.56 mg/kg/injection, schedule: Q01DX005 (ip), vehicle: other
  T/C: 113 % of control
endpoint: mean survival time, dose: 3.13 mg/kg/injection, schedule: Q01DX005 (ip), vehicle: other
  T/C: 111 % of control
endpoint: mean survival time, dose: 6.25 mg/kg/injection, schedule: Q01DX005 (ip), vehicle: other
  T/C: 90 % of control

## CC(C)(O)c1cccc(F)c1
[4]
  T/C: 102 % of control
[1]
  T/C: 98 % of control
[2]
  T/C: 102 % of control
[3]
  T/C: 102 % of control

## CC(C)CCCN
endpoint: mean survival time, dose: 100.0 mg/kg/injection, schedule: Q01DX001 (ip), vehicle: saline
  T/C: 100 % of control
endpoint: mean survival time, dose: 200.0 mg/kg/injection, schedule: Q01DX001 (ip), vehicle: saline
  T/C: 97 % of control
endpoint: mean survival time, dose: 400.0 mg/kg/injection, schedule: Q01DX001 (ip), vehicle: saline
  T/C: 97 % of control

## COc1ccc(NC(=O)Oc2ccccc2C(C)C)cc1
endpoint: mean survival time, dose: 25.0 mg/kg/injection, schedule: Q01DX009 (ip), vehicle: saline with Tween-80
  T/C: 97 % of control
endpoint: mean survival time, dose: 25.0 mg/kg/injection, schedule: Q04DX002 (ip), vehicle: saline with Tween-80
  T/C: 107 % of control
[4]
  T/C: 97 % of control
endpoint: mean survival time, dose: 50.0 mg/kg/injection, schedule: Q04DX002 (ip), vehicle: saline with Tween-80
  T/C: 111 % of control
[1]
  T/C: 97 % of control
endpoint: mean survival time, dose: 100.0 mg/kg/injection, schedule: Q04DX002 (ip), vehicle: saline with Tween-80
  T/C: 90 % of control and 96 % of control
endpoint: mean survival time, dose: 400.0 mg/kg/injection, schedule: Q04DX002 (ip), vehicle: saline with Tween-80
  T/C: 93 % of control
